Converted amounts (≈) assume the structure as drawn.
How the values were obtained:
[1] = test system: NHEKs treated with mARC1 and mARC2 siRNA; assay: Gene silencing of mARCs with siRNA, sensitivity to 6-HAP; format: cell-based, human; details: 6-HAP 10 μg/mL for 24 hrs, BrdU incorporation
Method: (§1) (a-b) Selective antiproliferative activity of 6-HAP against Pam212 squamous cell carcinoma, but not against normal keratinocytes. BrdU incorporation into Pam212 cells (b) or NHEKs (b) after 4-hr or 24-hr incubation, respectively, in suitable media containing indicated concentrations of 6-HAP or mitomycin C (10 μg/mL) (a). (c) Expression of mARC1 and mARC2 in NHEKs, squamous cell carcinoma (Pam212), melanoma (B16F10) and lymphoma cell lines (L5178). To compare relative expression level in each cells, data was shown as relative to GAPDH expression. (d) Expression of mARC1 and mARC2 in NHEKs treated with control siRNA, mARCI siRNA and mARC2 siRNA. (e) Effect of gene silencing with mARC1 and mARC2 siRNA on sensitivity to 6-HAP in NHEKs. NHEKs treated with each siRNA were incubated for 48 hrs and then incubated with 10 μg/mL of 6-HAP for 24 hrs.
Gene silencing of mARCs with siRNA. NHEK was cultured in EpiLife® media containing pre-designed siRNA for mARC1 or mARC2 (Thermo Fisher, Waltham, MA), and RNAiMAX® reagent for 24 hrs. Cells were maintained in EpiLife for 72 hrs, and incubated with 6-HAP (10 μg/mL) for 24 hrs. Anti-proliferative activity of 6-HAP was determined by measuring BrdU incorporation as described above.
In mammalian cells, mitochondrial […] reducing components (mARC) 1 and 2 have shown to be capable of reducing N-hydroxylated nucleobase analogs to canonical nucleobases. […]

M. luteus ATCC4698 = assay: MBC determination; format: cell-based; details: Micrococcus luteus, 3-log reduction, 24 hour, 37° C., half strength MHB in PBS
B16F10 melanoma = assay: In vivo tumor growth assay; parameters: species or system C57BL6 mice; details: intravenous 20 mg/kg every 48 hrs for 2 weeks
Method: (a-c) Effect of a single intravascular injection of 6-HAP on skin infection by GAS. The size of the infected lesion was measured by Image-J software (a). Representative images of infected skin (arrow) of mouse treated with 6-HAP or vehicle at Day-1 and Day-3 post infection are shown in (b). Infected skin was removed 24 and 72 hrs after bacterial injection and homogenized in PBS (c). CFUs were enumerated by plating serial dilutions of the homogenate on an agar plate. The data represent mean±SE of eight individual experiments (*P<0.05 and **P<0.01 by Student's t-test vs vehicle control). (d-e) Effect of repeated intravascular administrations with 6-HAP on growth of melanoma in mice. The data represent mean±SE of 10 individual experiments (*P<0.05, **P<0.01 and ***P<0.001 by Student's t-test vs vehicle control) (d). Representative images of tumor (broken line) in mouse treated with 6-HAP or vehicle at Day-9 and Day-13 are shown in (e).
In vivo tumor growth assay. B16F10 were suspended in sterile PBS. Shaved mouse dorsal skin was intradermally injected with 3×10^5 cells/50 μL. The C57BL6 mice were subsequently injected with 6-HAP dissolved in 2.5% DMSO/0.9% NaCl solution (40 mg/mL) at the dose of 20 mg/kg mouse via intravascular route every 48 hrs for 2 weeks. […] Tumor size was measured as the two perpendicular diameters with a caliper and volume was estimated by a formula, width^2×length/2. […]

[2] = test system: L5178Y tk+/- mouse lymphoma cells; assay: Mutagenic activity at the thymidine kinase (tk) locus; format: cell-based; details: compared to vehicle
Method: Because some nucleobase analogs exert mutagenic activities due to their misrecognition of wrong bases, mutagenic activity of 6-HAP was determined by detecting mutagenic events at the thymidine kinase (tk) locus of L5178Y tk^+/− mouse lymphoma cells.

[3] = test system: normal human keratinocytes (NHEK); assay: Cell proliferation assay (BrdU incorporation); format: cell-based; details: 24-hr incubation, until a very high dose (100 μg/mL)
Method: as §1
Cell culture and cell proliferation assay. B16F10 mouse melanoma, Pam212, L5178 and YAC-1 mouse […] cell lines were obtained from American Type Culture Collection. […] After 4-hr (tumor cell lines) or 24-hr (NHEK) incubation with 6-HAP, proliferative activity of cells was colorimetrically determined by monitoring BrdU incorporation with Cell Proliferation kit according to the manual (Roche).

[4] = Systemic toxicity in mice; format: in vivo; details: intravenous 20 mg/kg every 48 hrs for 2 weeks
Method: C57BL6 mice (8 week female) were intravascularly administrated with 6-HAP (20 mg/kg) or with an equal volume of vehicle (2.5% DMSO in 0.9% NaCl) every 48 hours for 2 weeks (Arrows). To observe toxicity of 6-HAP, mouse weight was determined at indicated time points. Data represent mean±SE of 10 mice.
Effect of systemic administration with 6-HAP on skin infection and melanoma growth in mice. […] Thus, given the apparent lack of toxicity, the effect on deep tissue infection was tested by intravenously injecting the non-toxic dose of 6-HAP (20 mg/kg) into a mouse model of GAS deep skin infection.

ONc1ncnc2nc[nH]c12 [6-HAP, 6-N-hydroxyaminopurine]
cellular sensitivity to 6-HAP after mARC1 and mARC2 gene silencing [1]: increased cellular sensitivity
MBC (M. luteus ATCC4698): 12.5 µg/mL (≈ 82.7 µM)
tumor size suppression compared to vehicle (B16F10 melanoma): > 60%
mutagenic activity, mutation frequency at tk locus [2]: did not detect a difference
BrdU incorporation [3]: not affected
toxic effects assessed by visual appearance, behavior or change in weight [4]: no apparent toxic effects

— patent US12427151B2, “Compositions and method of treating cancer” (The Regents of the University of California, priority 2017, dated 2025)
